Structures are written as SMILES. Active and inactive are the calls of the source. How the calls were made is not given here.

Carcinogen call data for seven molecules are collected here from PubChem BioAssay AID1259411 (Chemical Carcinogenesis Research Information System (CCRIS), 2018).

The subject of this data set is rodent carcinogenicity bioassays, tumor incidence. The data set is described as follows: CCRIS carcinogenicity studies. The settings on record: Dose: 0, Dose: 0. The method in brief:
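Archive of carcinogenicity, mutagenicity, tumor promotion and tumor inhibition results drawn from journals, NCI reports and other sources, expert-reviewed; covers 1985-2011 and is no longer updated.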

With `Cc1c2ccccc2c(CO)c2ccc3ccccc3c12`, the carcinogen call by setting is: (Species: MOUSE, Strain/Sex: B6C3F1/MALE, Route: INTRAPERITONEAL, 0.0025, 0.01, 0.03 UMOL/G IN 10 µL/G TRIOCTANOIN D 12 OF AGE (STUDY DURATION: 10 MO), 0.0025, 0.01, 0.03 UMOL/G IN 10 µL/G TRIOCTANOIN D 12 OF AGE (STUDY DURATION: 10 MO), Tumor Site: Type of Lesion: LIVER: HEPATOMA) “active; positive”; (Species: MOUSE, Strain/Sex: B6C3F1/MALE, Route: INTRAPERITONEAL, 0.0025 UMOL/G IN 10 µL TRIOCTANOIN ON D 12, 16, 20 AND 24 OF AGE (STUDY DURATION: 12 MO), Tumor Site: Type of Lesion: LIVER: HEPATOMA) “active; positive”; (Species: MOUSE, Strain/Sex: B6C3F1/MALE, Route: INTRAPERITONEAL, 0.0075, 0.015, 0.03 UMOL/G IN 10 µL/G TRIOCTANOIN ONCE ON D 12 OF AGE (STUDY DURATION: 10 MO), 0.0075, 0.015, 0.03 UMOL/G IN 10 µL/G TRIOCTANOIN ONCE ON D 12 OF AGE (STUDY DURATION: 10 MO), Tumor Site: Type of Lesion: LIVER: HEPATOMA) “active; positive”; (Species: MOUSE, Strain/Sex: B6C3F1/MALE, Route: INTRAPERITONEAL, 0.01, 0.03, 0.06, UMOL/G IN 5 µL/G DMSO ONCE ON D 12 AGE (STUDY DURATION: 10 MO), 0.01, 0.03, 0.06, UMOL/G IN 5 µL/G DMSO ONCE ON D 12 AGE (STUDY DURATION: 10 MO), Tumor Site: Type of Lesion: LIVER: HEPATOMA) “active; positive”; (Species: MOUSE, Strain/Sex: B6C3F1/MALE, Route: INTRAPERITONEAL, 0.03, 0.08, 0.25 UMOL/G IN 10 µL/G TRIOCTANOIN ONCE AT 12 D OF AGE (STUDY DURATION: 8.5 MO), 0.03, 0.08, 0.25 UMOL/G IN 10 µL/G TRIOCTANOIN ONCE AT 12 D OF AGE (STUDY DURATION: 8.5 MO), Tumor Site: Type of Lesion: LIVER: HEPATOMA) “active; positive”; (Species: MOUSE, Strain/Sex: STRAIN-A/FEMALE, Route: INTRAPERITONEAL, 0.01, 0.03, 0.06 UMOL/G IN 5 µL DMSO/G ONCE AT 4-6 WK OF AGE (STUDY DURATION: 6 MO), 0.01, 0.03, 0.06 UMOL/G IN 5 µL DMSO/G ONCE AT 4-6 WK OF AGE (STUDY DURATION: 6 MO), Tumor Site: Type of Lesion: LUNG: ADENOMA) “active; positive”. Further, the carcinogen call reads like this: (Species: RAT, Strain/Sex: SPRAGUE-DAWLEY/FEMALE, Route: SUBCUTANEOUS, 0.2 UMOL 3/WK FOR 20 DOSES (STUDY DURATION: 52 WK), Tumor Site: Type of Lesion: INJECTION SITE: SARCOMA) “active; positive”; (Species: RAT, Strain/Sex: SPRAGUE-DAWLEY/FEMALE, Route: SUBCUTANEOUS, 2 UMOL IN 0.25 ML TRIOCTANOIN INTO LEFT HIND LEG AT ABOUT 40 D OF AGE FOLLOWED BY A SECOND DOSE 6 D LATER (STUDY DURA) “inactive; negative”; (Species: RAT, Strain/Sex: SPRAGUE-DAWLEY/FEMALE, Route: SUBCUTANEOUS, 2 UMOL IN 0.25 ML TRIOCTANOIN ONCE INTO LEFT HIND LEG AT ABOUT 40 D OF AGE (STUDY DURATION: 16 MO)) “inactive; negative”.
For `COc1ccc2c3c1O[C@H]1[C@@H](O)C=C[C@H]4[C@@H](C2)N(C)CC[C@@]341`, the carcinogen call is “inactive; negative” (Species: MOUSE, Strain/Sex: B6C3F1/FEMALE, Route: ORAL, 750, 1500, 3000 PPM IN DIET FOR UP TO 106 WK (STUDY DURATION: 106 WK), 750, 1500, 3000 PPM IN DIET FOR UP TO 106 WK (STUDY DURATION: 106 WK)); “inactive; negative” (Species: MOUSE, Strain/Sex: B6C3F1/MALE, Route: ORAL, 750, 1500, 3000 PPM IN DIET FOR UP TO 106 WK (STUDY DURATION: 106 WK), 750, 1500, 3000 PPM IN DIET FOR UP TO 106 WK (STUDY DURATION: 106 WK)); “inactive; negative” (Species: RAT, Strain/Sex: F344/FEMALE, Route: ORAL, 400, 800, 1600 PPM IN DIET FOR UP TO 106 WK (STUDY DURATION: 106 WK), 400, 800, 1600 PPM IN DIET FOR UP TO 106 WK (STUDY DURATION: 106 WK)); “inactive; negative” (Species: RAT, Strain/Sex: F344/MALE, Route: ORAL, 400, 800, 1600 PPM IN DIET FOR UP TO 106 WK (STUDY DURATION: 106 WK), 400, 800, 1600 PPM IN DIET FOR UP TO 106 WK (STUDY DURATION: 106 WK)).
Take `N#CN=C(N)N`: the carcinogen call is “inactive; negative” (Species: RAT, Strain/Sex: F344/FEMALE, Route: ORAL, 2.5, 5% IN DIET FOR 104 WK (STUDY DURATION: 113 WK), 2.5, 5% IN DIET FOR 104 WK (STUDY DURATION: 113 WK)) and “inactive; negative” (Species: RAT, Strain/Sex: F344/MALE, Route: ORAL, 2.5, 5% IN DIET FOR 104 WK (STUDY DURATION: 113 WK), 2.5, 5% IN DIET FOR 104 WK (STUDY DURATION: 113 WK)).
For the molecule `COc1c2occc2cc2ccc(=O)oc12`, the carcinogen call runs as follows: (Species: RAT, Strain/Sex: F344/F, Route: GAVAGE, 37.5, 75 MG/KG IN CORN OIL 5D/WK FOR 103 WK (STUDY DURATION: 106 WK), 37.5, 75 MG/KG IN CORN OIL 5D/WK FOR 103 WK (STUDY DURATION: 106 WK)) “inactive; negative”; (Species: RAT, Strain/Sex: F344/M, Route: GAVAGE, 37.5, 75 MG/KG IN CORN OIL 5D/WK FOR 103 WK (STUDY DURATION: 106 WK), 37.5, 75 MG/KG IN CORN OIL 5D/WK FOR 103 WK (STUDY DURATION: 106 WK), Tumor Site: Type of Lesion: SUBCUTANEOUS TISSUE: FIBROMA, SUBCUTANEOUS TISSUE: FIBROMA OR SARCOMA, LUNG: ALVEOLAR/BRONCHIOLAR ADENOMA, KIDNEY: TUBUL, Tumor Site: Type of Lesion: SUBCUTANEOUS TISSUE: FIBROMA, SUBCUTANEOUS TISSUE: FIBROMA OR SARCOMA, LUNG: ALVEOLAR/BRONCHIOLAR ADENOMA, KIDNEY: TUBUL) “active; positive”.
For `OCl`, the carcinogen call by setting is: (Species: RAT, Strain/Sex: SPRAGUE-DAWLEY/FEMALE, Route: ORAL, 100, 500, 750 MG/L IN DRINKING WATER FOR 104 WK (STUDY DURATION: LIFETIME), 100, 500, 750 MG/L IN DRINKING WATER FOR 104 WK (STUDY DURATION: LIFETIME), Tumor Site: Type of Lesion: LYMPHATIC SYSTEM: LYMPHOMA OR LEUKEMIA) “active; positive”; (Species: RAT, Strain/Sex: SPRAGUE-DAWLEY/MALE, Route: ORAL, 100, 500, 750 MG/L IN DRINKING WATER FOR 104 WK (STUDY DURATION: LIFETIME), 100, 500, 750 MG/L IN DRINKING WATER FOR 104 WK (STUDY DURATION: LIFETIME)) “inactive; negative”.
Turning to `CNC(=O)ON=C(SC)C(=O)N(C)C`, the carcinogen call reads like this: (Species: MOUSE, Strain/Sex: CD-1/FEMALE, Route: ORAL, 25, 50, 75 PPM IN DIET FOR 2 YR (STUDY DURATION: 2 YR), 25, 50, 75 PPM IN DIET FOR 2 YR (STUDY DURATION: 2 YR)) “inactive; negative”; (Species: MOUSE, Strain/Sex: CD-1/MALE, Route: ORAL, 25, 50, 75 PPM IN DIET FOR 2 YR (STUDY DURATION: 2 YR), 25, 50, 75 PPM IN DIET FOR 2 YR (STUDY DURATION: 2 YR)) “inactive; negative”; (Species: RAT, Strain/Sex: CRL:CD/FEMALE, Route: ORAL, 50, 100, 150 PPM IN DIET FOR 2 YR (STUDY DURATION: 2 YR), 50, 100, 150 PPM IN DIET FOR 2 YR (STUDY DURATION: 2 YR)) “inactive; negative”; (Species: RAT, Strain/Sex: CRL:CD/MALE, Route: ORAL, 50, 100, 150 PPM IN DIET FOR 2 YR (STUDY DURATION: 2 YR), 50, 100, 150 PPM IN DIET FOR 2 YR (STUDY DURATION: 2 YR)) “inactive; negative”.
Regarding `C[C@@H]1O[C@@H](OC[C@H]2O[C@@H](Oc3c(-c4ccc(O)c(O)c4)oc4cc(OS(=O)(=O)O)cc(OS(=O)(=O)O)c4c3=O)[C@H](O)[C@@H](O)[C@@H]2O)[C@H](O)[C@H](O)[C@H]1O`, the carcinogen call (Species: RAT, Strain/Sex: SPRAGUE-DAWLEY/FEMALE, Route: GAVAGE, 10, 27, 71, 188, 500 MG/KG 3/WK FOR 2 YR (STUDY DURATION: 2 YR), 10, 27, 71, 188, 500 MG/KG 3/WK FOR 2 YR (STUDY DURATION: 2 YR)) is “inactive; negative” and the carcinogen call (Species: RAT, Strain/Sex: SPRAGUE-DAWLEY/MALE, Route: GAVAGE, 10, 27, 71, 188, 500 MG/KG 3/WK FOR 2 YR (STUDY DURATION: 2 YR), 10, 27, 71, 188, 500 MG/KG 3/WK FOR 2 YR (STUDY DURATION: 2 YR)) is “inactive; negative”.
